From patent US20140335083A1, “METHODS OF TREATMENT AND PREVENTION OF EYE DISEASES” (GLAXO GROUP LIMITED, priority 2011, published 2014)

How the values were obtained:
Type in all cases: in vivo
[1] = tested on: laser-induced CNV in C57BL/6 mice; test: Laser-induced CNV in C57/BL6 mice, fluorescein angiography
Method: Adult 12 weeks old female C57BL/6 mice were used to generate the laser-induced CNV model. Mice were anesthetized by intraperitoneal ketamine hydrochloride (25 mg/kg) and xylazine (10 mg/kg) and their pupils dilated by topical tropicamide 1%. Laser-photocoagulation was performed a diode laser (680 nm; 210 mW power, 100 ms duration, 100 […]) under direct vision using a hand-held cover slide as a contact lens and were localized to the 2, 10, and 6 o'clock positions of the posterior pole of the retina in both eyes. These laser settings consistently generate a subretinal gas bubble which strongly correlates with laser-induced rupture of Bruch's membrane and successful induction of CNV. Only lesions in which a bubble is formed were included in the analysis. Fluorescein angiography using a Kowa Genesis small animal fundus camera was conducted at 1 week and 2 weeks following induction of CNV. The size of CNV lesions were quantified by digital image analysis the mean area of hyperfluorescence per lesion during the early phase (90 seconds post fluorescein injection). The pupils were dilated by topical tropicamide 1% and fluorescein sodium 2% administered by intraperitoneal injection (0.2 ml). Eyes were excluded if there was significant cataract or keratopathy that could affect laser energy delivery or angiography.
Adult 12 weeks old female C57BL/6 mice were used to generate the laser-induced CNV (3 CNV lesions per mouse retina) model using laser photocoagulation and puncture of Bruch's membrane.
The statistical analysis conducted here is stringent in that number of observations are related to the number of animals treated whereas in most other studies (conducted in the wider literature) using this laser-induced model each lesion (3 CNV lesions per mouse retina) are regarded as independent observations. […] However it is clear that in the case of orally dosed pazopanib either statistical approach would have yielded a robust effect or as such the effect of CCR3 inhibitor '994 in this model appears weaker than orally dosed pazopanib.

[2] = tested on: retinal neovascularization in C57BL/6 mice; test: Oxygen-induced retinopathy, area of retinal neovascularization; details: hyperbaric oxygen
Method: C57BL/6 mice placed in 75% O2 at postnatal day (P) 7 and at P12 were returned to room air and treatment initiated with compound or vehicle. At P17, the area of retinal NV on the surface of the retina was measured as described previously (Shen et al., 2007). Briefly, P17 mice were given an intraocular injection of 1 μl of rat anti-mouse platelet endothelial cell adhesion molecule-1 (PECAM-1) antibody (Pharmingen, San Jose, Calif., USA); after 12 h, they were euthanized, and eyes were fixed in PBS-buffered formalin for 5 h at room temperature. Retinas were dissected, washed, and incubated with goat-anti rat polyclonal antibody conjugated with Alexa 488 (Invitrogen, Carlsbad, Calif., USA) at 1:500 dilution at room temperature for 45 min and flat mounted. An observer masked with respect to treatment group measured the area of NV per retina by image analysis.
(see, FIGS. 12 and 13). In systemic experiments both eyes were examined and no significant differences were observed between CCR3 inhibitor '994 and vehicle treated groups. In topical experiments no significant differences were noted between CCR3 inhibitor '994 and vehicle groups nor treated and fellow eye in the CCR3 inhibitor '994 treated group. […] Consequently SU4312 acts similarly on retinal neovascularization to that of an alternative receptor tyrosine kinase inhibitor pazopanib which was effective in limiting choroidal neovascularization.

[3] = tested on: spontaneous CNV in JR5558 mice; test: JR5558 spontaneous CNV model, quantitative immunohistochemistry (isolectin B4 whole-mount); details: 8 mg/kg BID v Vehicle, 12 days P14-P26
Method: JR5558 mice develop CNV (on an atrophic background) spontaneously with CNV lesions first emerging approximately 12 days after birth. JR5558 mice were intraperitoneally treated with various amounts of a rat anti-mouse VEGF receptor (VEGFR)-2 blocking antibody (MAB4431; R&D systems) or a purified rat non-immune isotype match control IgG2α antibody (R&D systems) starting from P14 for a total of 10 doses in 11 days and CNV development was analyzed by fluorescein angiography (FA) 24 hours after the last dose on P25. For Mice treated with CCR3 inhibitor '994 they were dosed intraperitoneally or by eye drop with various concentrations of the drug starting at P14 for a total of 12 days and CNV development was analyzed by FA 24 hours after the last dose on P26. To study the combination effects of anti-VEGFR2 antibody and CCR3 inhibitor '994, mice were treated intraperitoneally with each material alone or in combination starting from P14 for a total of 10 doses in 11 days and CNV development was analyzed by FA 24 hours after the last dose on P25. […]
When CCR3 inhibitor '994 was dosed BID instead of QD, CCR3 inhibitor '994 also produced a significant effect in limiting both total lesion (see, FIG. 4, Table 5) area and total CNV number (see, FIG. 4, Table 6). […] Eyes were completely washed and then analysed by quantitative immunohistochemistry.

## NC(=O)c1ccc(CNC(=O)NC[C@H]2CN(Cc3ccc(Cl)c(Cl)c3)CCO2)cc1 [CCR3 inhibitor '994, 4-[[[[[[(2s)-4-[(3,4-dichlorophenyl)methyl]-2-morpholinyl]methyl]-amino]carbonyl]-amino]methyl]benzamide]
[1]; Table 1 study, 8 mg/kg po QD v Vehicle, Week 1
  Ratio of mean lesion sizes: 0.82
[1]; Table 1 study, 8 mg/kg po QD v Vehicle, Week 2
  Ratio of mean lesion sizes: 0.99
[1]; Table 1 study, 30 mg/kg '994 v 20 mg/kg Pazopanib, Week 1
  Ratio of mean lesion sizes: 1.47
[1]; Table 1 study, 30 mg/kg '994 v 20 mg/kg Pazopanib, Week 2
  Ratio of mean lesion sizes: 2.03
[1]; Table 1 study, 30 mg/kg po QD v Vehicle, Week 1
  Ratio of mean lesion sizes: 0.70
[1]; Table 1 study, 30 mg/kg po QD v Vehicle, Week 2
  Ratio of mean lesion sizes: 0.78
[1]; Table 2 (second) study, 2 mg/kg po QD v Vehicle, Week 1
  Ratio of mean lesion sizes: 0.93
[1]; Table 2 (second) study, 2 mg/kg po QD v Vehicle, Week 2
  Ratio of mean lesion sizes: 0.83
[1]; Table 2 (second) study, 8 mg/kg BID po v Vehicle, Week 1
  Ratio of mean lesion sizes: 0.80
[1]; Table 2 (second) study, 8 mg/kg BID po v Vehicle, Week 2
  Ratio of mean lesion sizes: 0.65
[1]; Table 2 (second) study, 8 mg/kg po QD v Vehicle, Week 1
  Ratio of mean lesion sizes: 0.81
[1]; Table 2 (second) study, 8 mg/kg po QD v Vehicle, Week 2
  Ratio of mean lesion sizes: 0.66
[1]; Table 2 (second) study, 30 mg/kg '994 v 20 mg/kg Pazopanib, Week 1
  Ratio of mean lesion sizes: 2.05
[1]; Table 2 (second) study, 30 mg/kg '994 v 20 mg/kg Pazopanib, Week 2
  Ratio of mean lesion sizes: 2.16
[1]; Table 2 (second) study, 30 mg/kg po QD v Vehicle, Week 1
  Ratio of mean lesion sizes: 0.62
[1]; Table 2 (second) study, 30 mg/kg po QD v Vehicle, Week 2
  Ratio of mean lesion sizes: 0.56
[2]; systemic 8 mg/kg BID i.p.
  effect on neovascularization of retinal vessels: did not have an effect
[2]; topically 5 ul 10 mg/ml BID
  effect on neovascularization of retinal vessels: did not have an effect
[3]
  Difference in mean number of CNV lesions per eye: −8.00
  Difference in mean total CNV area per eye: −76632
